Measurements: PubChem BioAssay (NCI)
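Grown in 96-well plates, cells were treated for 48 hours with each compound at five concentrations. Insufficient inhibition: endpoint recorded as highest concentration tested. Definition used: TGI = concentration required for complete inhibition of growth.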

Columns and labels:
Assay in all cases: NCI-60 cell line screen, 48 h
RPMI-8226 leukemia = tested on: RPMI-8226 leukemia
MCF7 breast = tested on: MCF7 breast
HCC-2998 colon = tested on: HCC-2998 colon
SK-MEL-2 melanoma = tested on: SK-MEL-2 melanoma
HCT-116 colon = tested on: HCT-116 colon
UACC-62 melanoma = tested on: UACC-62 melanoma
ACHN renal = tested on: ACHN renal
NCI-H522 lung = tested on: NCI-H522 lung
MDA-MB-435 = tested on: MDA-MB-435
A498 renal = tested on: A498 renal

Compound	TGI (RPMI-8226 leukemia)	TGI (MCF7 breast)	TGI (HCC-2998 colon)	TGI (SK-MEL-2 melanoma)	TGI (HCT-116 colon)	TGI (UACC-62 melanoma)	TGI (ACHN renal)	TGI (NCI-H522 lung)	TGI (MDA-MB-435)	TGI (A498 renal)
CC(=O)N=C1N(/C=C2\C(=O)Oc3ccccc3C2=O)C(=O)/C(=C/c2ccc(NC(C)=O)cc2)N1C	> 100 µM	> 100 µM	> 100 µM	> 100 µM	> 100 µM	> 100 µM	> 100 µM	> 100 µM	> 100 µM	> 100 µM
O=S(=O)(/N=C(\NO)Nc1ccc(Cl)cc1)c1cccc2nsnc12				39.2 µM	85.4 µM	53.1 µM	> 100 µM	28.9 µM	> 100 µM	
CC(=O)N=C1N(/C=C2\C(=O)Oc3ccccc3C2=O)C(=O)/C(=C/c2ccc(Cl)cc2Cl)N1C	> 100 µM	> 100 µM	> 100 µM	> 100 µM	> 100 µM	> 100 µM	> 100 µM	> 100 µM	> 100 µM	> 100 µM
CC(C)C(N)=O	> 5000 µM			> 5000 µM	> 5000 µM	> 5000 µM	> 5000 µM	> 5000 µM		
COC(=O)[C@H](Cc1c[nH]c2ccccc12)NC(=O)c1ccc(CNC(=O)/C=C/c2cccc(Oc3ccccc3)c2)cc1	> 100 µM	> 100 µM	> 100 µM	82.8 µM	> 100 µM	> 100 µM	> 100 µM		27.8 µM	> 100 µM
C[N+]1(CCCl)CC[N+](C)(CCCl)CC1 (configuration not stated)	> 100 µM	> 100 µM		> 100 µM	> 100 µM	> 100 µM	> 100 µM		> 100 µM	> 100 µM
Cc1csc(/N=C\c2c(O)c3ccccc3oc2=O)n1		> 100 µM		49.5 µM	> 100 µM	> 100 µM	> 100 µM	> 100 µM	> 100 µM	
CCNC(=O)c1c(O)c2ccccc2[nH]c1=O	> 100 µM	> 100 µM	> 100 µM		> 100 µM		> 100 µM	> 100 µM	> 100 µM	> 100 µM
CCOP(=O)(OCC)C(C#N)Cc1ccco1 (configuration not stated)	> 10 µM	> 10 µM	> 10 µM	> 10 µM	> 10 µM	> 10 µM	> 10 µM		> 10 µM	> 10 µM
COc1ccc(C2C3COc4ccccc4C3=NN2c2ccccc2)cc1 (configuration not stated)	> 100 µM	> 100 µM		> 100 µM	> 100 µM	> 100 µM	> 100 µM	> 100 µM	> 100 µM	> 100 µM
C=C1C(=O)O[C@@H]2C=C(C)C3=CC(=O)[C@](C)(C[C@H](OC(=O)/C(C)=C\C)[C@@H]12)O3	0.938 µM	1.63 µM	3.06 µM	6.73 µM	0.868 µM	2.06 µM	3 µM	0.394 µM	3.74 µM	
CC1C2(C)OC(=N)C(C#N)(C(c3cccc([N+](=O)[O-])c3)O2)C1(C#N)C#N (configuration not stated)		50.2 µM		61.7 µM	40.4 µM	42.7 µM	> 100 µM			> 100 µM
O=C(Cc1ccccc1)Nn1c(-c2ccccc2)nc2ccccc2c1=O	> 100 µM	> 100 µM	> 100 µM		> 100 µM	> 100 µM	> 100 µM	> 100 µM	> 100 µM	> 100 µM
O=C1CCCCCCCCCCC1CN1CCCCC1 (configuration not stated)	> 100 µM		> 100 µM	> 100 µM	> 100 µM	> 100 µM	> 100 µM	> 100 µM		> 100 µM
O=C(N/N=C1/C(=O)c2c3ccccc3cc3cccc1c23)c1ccccc1	> 100 µM	> 77.1 µM		> 94 µM	> 84.8 µM	> 78.1 µM	> 67.4 µM	> 100 µM	> 86.7 µM	> 57.4 µM
CCOC(=O)c1sc2[n+](c1C)C(=O)/C(=C/c1ccc([N+](=O)[O-])cc1)S2	67.3 µM	62.6 µM	37.5 µM	51.2 µM	54.7 µM	40.3 µM	> 100 µM		46.2 µM	> 100 µM
NC1=CN2c3ccccc3N(CC(=O)O)C2C=C1 (configuration not stated)	> 100 µM	> 100 µM	> 100 µM	> 100 µM	> 100 µM	> 100 µM	> 100 µM		> 100 µM	> 100 µM
Cc1ccc2oc(=O)c(C(=O)Nc3nc(C45CC6CC(CC(C6)C4)C5)cs3)cc2c1	> 100 µM	> 100 µM	> 100 µM		> 100 µM		> 100 µM	> 100 µM	> 100 µM	> 100 µM
COC(=O)c1cnc(Cl)cn1	59 µM	95.5 µM		> 100 µM	> 100 µM	> 100 µM	> 100 µM	5.33 µM	> 100 µM	
Cc1ccc(/C=N/Nc2ccc3ccccc3n2)s1	86.9 µM	45.1 µM	30.7 µM	> 100 µM	24 µM	> 100 µM	39.9 µM	77.8 µM	56.7 µM	
Cc1cc(S(=O)(=O)Nc2nc(N)nc(N(C)C)n2)c(SCC(=O)O)cc1Cl	> 10 µM	> 10 µM	> 10 µM	> 10 µM	> 10 µM		> 10 µM	> 10 µM		> 10 µM
C=C1C(=O)O[C@H]2[C@@H](O)[C@H](C)CCC[C@]3(C)O[C@H]3CC[C@@]3(C)O[C@@H]3C[C@@H]12	50 µM	7.87 µM	10.9 µM	16.6 µM	6.52 µM	8.8 µM		2.85 µM	10 µM	14.4 µM
CCOC(=O)C(NC(=O)c1ccccc1)(N1CCOCC1)C(F)(F)F (configuration not stated)	> 100 µM	> 100 µM	> 100 µM	> 100 µM	> 100 µM	> 100 µM	> 100 µM	> 100 µM	> 100 µM	
CCOC(=O)CC(=O)Nc1cccc2[nH]cnc12	> 100 µM	> 100 µM		> 100 µM	> 100 µM	> 100 µM	> 100 µM		> 100 µM	> 100 µM
COc1ccc(CN=C(N)N)c2ccccc12	> 100 µM	> 100 µM		86.9 µM	> 100 µM	> 100 µM	> 100 µM	> 100 µM		
